In patent US20210045385A1, “PYRIDAZINONE-SUBSTITUTED KETOXIMES AS HERBICIDES” (FMC Corporation, priority 2018, published 2021):

Key:
Format in all cases: in vivo
[1] = tested on: sedge umbrella (small-flower umbrella sedge, Cyperus difformis); assay: Test D flooded paddy test, visual plant response rating; conditions: 250 g ai/ha, scale 0 to 100 (0 no effect, 100 complete control), 13 to 15 d
Summary of the method: (§1)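 Plants were grown to the 2-leaf stage, pots flooded to 3 cm above soil, and compound applied directly into the paddy water, with the depth held throughout. After 13 to 15 d in a greenhouse, response was rated visually against untreated controls on a 0–100 scale (0 no effect, 100 complete control).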

[2] = tested on: duck salad (Heteranthera limosa); assay: as above; conditions: 250 g ai/ha, scale 0 to 100 (0 no effect, 100 complete control), 13 to 15 d
Summary of the method: as §1

[3] = tested on: barnyardgrass (Echinochloa crus-galli); assay: as above; conditions: 250 g ai/ha, scale 0 to 100 (0 no effect, 100 complete control), 13 to 15 d
Summary of the method: as §1

rice (Oryza sativa) = assay: as above; conditions: 250 g ai/ha, scale 0 to 100 (0 no effect, 100 complete control), 13 to 15 d
Summary of the method: as §1

[4] = tested on: foxtail, giant (giant foxtail, Setaria faberi); assay: Test C preemergence, visual plant response rating
Summary of the method: (§2)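 Compounds in a non-phytotoxic solvent with surfactant were applied as a directed soil spray preemergence or to 2–10 cm, one- to two-leaf plants postemergence, in loam–sand soil. After about 10 d in a greenhouse, injury was visually rated against untreated controls on a 0–100 scale (100 = complete control).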

[5] = tested on: Italian ryegrass (Lolium mutiflorum); assay: Test C preemergence, visual plant response rating
Summary of the method: as §2

[6] = tested on: pigweed (Amaranthus retroflexus); assay: Test C preemergence, visual plant response rating
Summary of the method: as §2

[7] = tested on: barnyardgrass (Echinochloa crus-galli); assay: Test C preemergence, visual plant response rating
Summary of the method: as §2

[8] = tested on: ragweed (common ragweed, Ambrosia artemisiifolia); assay: Test C preemergence, visual plant response rating
Summary of the method: as §2

kochia (Bassia scoparia) [9] = assay: Test C preemergence, visual plant response rating
Summary of the method: as §2

[10] = tested on: foxtail, giant (giant foxtail, Setaria faberi); assay: Test C postemergence, visual plant response rating
Summary of the method: as §2

[11] = tested on: Italian ryegrass (Lolium mutiflorum); assay: Test C postemergence, visual plant response rating
Summary of the method: as §2

[12] = tested on: blackgrass (Alopecurus myosuroides); assay: Test C postemergence, visual plant response rating
Summary of the method: as §2

[13] = tested on: pigweed (Amaranthus retroflexus); assay: Test C postemergence, visual plant response rating
Summary of the method: as §2

[14] = tested on: barnyardgrass (Echinochloa crus-galli); assay: Test C postemergence, visual plant response rating
Summary of the method: as §2

[15] = tested on: ragweed (common ragweed, Ambrosia artemisiifolia); assay: Test C postemergence, visual plant response rating
Summary of the method: as §2

[16] = tested on: galium (catchweed bedstraw, Galium aparine); assay: Test C postemergence, visual plant response rating
Summary of the method: as §2

[17] = tested on: wheat (Triticum aestivum); assay: Test C postemergence, visual plant response rating
Summary of the method: as §2

kochia (Bassia scoparia) [18] = assay: Test C postemergence, visual plant response rating
Summary of the method: as §2

corn (Zea mays) = assay: Test C postemergence, visual plant response rating
Summary of the method: as §2

[19] = Test C, 31 g ai/ha, 0 is no effect, 100 is complete control
[20] = Test C, 125 g ai/ha, 0 is no effect, 100 is complete control
[21] = Test C, postemergence, 125 g ai/ha
[22] = Test C, postemergence, 31 g ai/ha

CC(C)O/N=C(\c1c(O)c(Cl)nn(C)c1=O)c1ccc(F)c2ccccc12 [Compound 210]
Plant response rating, Sedge, Umbrella (Flood) [1]: 90 | Plant response rating, Ducksalad (Flood) [2]: 45 | Plant response rating, Barnyardgrass (Flood) [3]: 0 | Plant response rating, Rice (Flood) (rice (Oryza sativa)): 0 | Foxtail, Giant plant response rating (0 to 100 scale) [4, 19]: 90 | Foxtail, Giant plant response rating (0 to 100 scale) [4, 20]: 100 | Ryegrass, Italian plant response rating (0 to 100 scale) [5, 19]: 0 | Ryegrass, Italian plant response rating (0 to 100 scale) [5, 20]: 20 | Pigweed plant response rating (0 to 100 scale) [6, 19]: 30 | Pigweed plant response rating (0 to 100 scale) [6, 20]: 100 | Barnyardgrass plant response rating (0 to 100 scale) [7, 19]: 30 | Barnyardgrass plant response rating (0 to 100 scale) [7, 20]: 80 | Ragweed plant response rating (0 to 100 scale) [8, 19]: 0 | Ragweed plant response rating (0 to 100 scale) [8, 20]: 90 | Kochia plant response rating (0 to 100 scale) (kochia (Bassia scoparia) [9]; [19]): 0 | Kochia plant response rating (0 to 100 scale) (kochia (Bassia scoparia) [9]; [20]): 0 | Foxtail, Giant plant response rating (0 to 100 scale) ([10]; Postemergence, 31 g ai/ha): 70 | Foxtail, Giant plant response rating (0 to 100 scale) [10, 21]: 90 | Ryegrass, Italian plant response rating (0 to 100 scale) ([11]; Postemergence, 31 g ai/ha): 0 | Ryegrass, Italian plant response rating (0 to 100 scale) [11, 21]: 20 | Blackgrass plant response rating (0 to 100 scale) ([12]; Postemergence, 31 g ai/ha): 0 | Blackgrass plant response rating (0 to 100 scale) [12, 21]: 30 | Pigweed plant response rating (0 to 100 scale) ([13]; Postemergence, 31 g ai/ha): 40 | Pigweed plant response rating (0 to 100 scale) [13, 21]: 100 | Barnyardgrass plant response rating (0 to 100 scale) ([14]; Postemergence, 31 g ai/ha): 40 | Barnyardgrass plant response rating (0 to 100 scale) [14, 21]: 70 | Ragweed plant response rating (0 to 100 scale) ([15]; Postemergence, 31 g ai/ha): 90 | Ragweed plant response rating (0 to 100 scale) [15, 21]: 90 | Galium plant response rating (0 to 100 scale) ([16]; Postemergence, 31 g ai/ha): 90 | Galium plant response rating (0 to 100 scale) [16, 21]: 100 | Wheat plant response rating (0 to 100 scale) ([17]; Postemergence, 31 g ai/ha): 0 | Wheat plant response rating (0 to 100 scale) [17, 21]: 0 | Kochia plant response rating (0 to 100 scale) (kochia (Bassia scoparia) [18]; Postemergence, 31 g ai/ha): 30 | Kochia plant response rating (0 to 100 scale) (kochia (Bassia scoparia) [18]; [21]): 40 | Corn plant response rating (0 to 100 scale) (corn (Zea mays); Postemergence, 31 g ai/ha): 20 | Corn plant response rating (0 to 100 scale) (corn (Zea mays); [21]): 20

CO/N=C(\c1cc(Cl)cc(Br)c1)c1c(O)c(C)nn(C)c1=O [Compound 157]
Plant response rating, Sedge, Umbrella (Flood) [1]: 0 | Plant response rating, Ducksalad (Flood) [2]: 0 | Plant response rating, Barnyardgrass (Flood) [3]: 0 | Plant response rating, Rice (Flood) (rice (Oryza sativa)): 0 | Foxtail, Giant plant response rating (0 to 100 scale) ([4]; 125 g ai/ha): 100 | Foxtail, Giant plant response rating (0 to 100 scale) [4, 19]: 80 | Ryegrass, Italian plant response rating (0 to 100 scale) ([5]; 125 g ai/ha): 100 | Ryegrass, Italian plant response rating (0 to 100 scale) [5, 19]: 90 | Pigweed plant response rating (0 to 100 scale) ([6]; 125 g ai/ha): 40 | Pigweed plant response rating (0 to 100 scale) [6, 19]: 10 | Barnyardgrass plant response rating (0 to 100 scale) ([7]; 125 g ai/ha): 90 | Barnyardgrass plant response rating (0 to 100 scale) [7, 19]: 70 | Ragweed plant response rating (0 to 100 scale) ([8]; 125 g ai/ha): 100 | Ragweed plant response rating (0 to 100 scale) [8, 19]: 100 | Kochia plant response rating (0 to 100 scale) (kochia (Bassia scoparia) [9]; 125 g ai/ha): 100 | Kochia plant response rating (0 to 100 scale) (kochia (Bassia scoparia) [9]; [19]): 50 | Foxtail, Giant plant response rating (0 to 100 scale) [10, 22]: 60 | Foxtail, Giant plant response rating (0 to 100 scale) [10, 21]: 90 | Ryegrass, Italian plant response rating (0 to 100 scale) ([11]; Postemergence, 31 g ai/ha): 70 | Ryegrass, Italian plant response rating (0 to 100 scale) [11, 21]: 100 | Blackgrass plant response rating (0 to 100 scale) [12, 22]: 10 | Blackgrass plant response rating (0 to 100 scale) [12, 21]: 20 | Pigweed plant response rating (0 to 100 scale) ([13]; Postemergence, 31 g ai/ha): 20 | Pigweed plant response rating (0 to 100 scale) [13, 21]: 60 | Barnyardgrass plant response rating (0 to 100 scale) [14, 22]: 30 | Barnyardgrass plant response rating (0 to 100 scale) [14, 21]: 80 | Ragweed plant response rating (0 to 100 scale) ([15]; Postemergence, 31 g ai/ha): 70 | Ragweed plant response rating (0 to 100 scale) [15, 21]: 100 | Galium plant response rating (0 to 100 scale) [16, 22]: 90 | Galium plant response rating (0 to 100 scale) [16, 21]: 100 | Wheat plant response rating (0 to 100 scale) ([17]; Postemergence, 31 g ai/ha): 0 | Wheat plant response rating (0 to 100 scale) [17, 21]: 60 | Kochia plant response rating (0 to 100 scale) (kochia (Bassia scoparia) [18]; [22]): 80 | Kochia plant response rating (0 to 100 scale) (kochia (Bassia scoparia) [18]; [21]): 100 | Corn plant response rating (0 to 100 scale) (corn (Zea mays); [22]): 10 | Corn plant response rating (0 to 100 scale) (corn (Zea mays); [21]): 30

CON=C(c1cc(Cl)cc(Cl)c1F)c1c(O)c(C)nn(C)c1=O [Compound 299]
Plant response rating, Sedge, Umbrella (Flood) [1]: 90 | Plant response rating, Ducksalad (Flood) [2]: 80 | Plant response rating, Barnyardgrass (Flood) [3]: 85 | Plant response rating, Rice (Flood) (rice (Oryza sativa)): 45 | Foxtail, Giant plant response rating (0 to 100 scale) [4, 19]: 100 | Foxtail, Giant plant response rating (0 to 100 scale) [4, 20]: 100 | Ryegrass, Italian plant response rating (0 to 100 scale) [5, 19]: 100 | Ryegrass, Italian plant response rating (0 to 100 scale) [5, 20]: 100 | Pigweed plant response rating (0 to 100 scale) [6, 19]: 100 | Pigweed plant response rating (0 to 100 scale) [6, 20]: 100 | Barnyardgrass plant response rating (0 to 100 scale) [7, 19]: 90 | Barnyardgrass plant response rating (0 to 100 scale) [7, 20]: 100 | Ragweed plant response rating (0 to 100 scale) [8, 19]: 90 | Ragweed plant response rating (0 to 100 scale) [8, 20]: 100 | Kochia plant response rating (0 to 100 scale) (kochia (Bassia scoparia) [9]; [19]): 90 | Kochia plant response rating (0 to 100 scale) (kochia (Bassia scoparia) [9]; [20]): 100 | Foxtail, Giant plant response rating (0 to 100 scale) ([10]; Postemergence, 31 g ai/ha): 90 | Foxtail, Giant plant response rating (0 to 100 scale) [10, 21]: 100 | Ryegrass, Italian plant response rating (0 to 100 scale) ([11]; Postemergence, 31 g ai/ha): 100 | Ryegrass, Italian plant response rating (0 to 100 scale) [11, 21]: 100 | Blackgrass plant response rating (0 to 100 scale) ([12]; Postemergence, 31 g ai/ha): 80 | Blackgrass plant response rating (0 to 100 scale) [12, 21]: 80 | Pigweed plant response rating (0 to 100 scale) ([13]; Postemergence, 31 g ai/ha): 90 | Pigweed plant response rating (0 to 100 scale) [13, 21]: 100 | Barnyardgrass plant response rating (0 to 100 scale) ([14]; Postemergence, 31 g ai/ha): 70 | Barnyardgrass plant response rating (0 to 100 scale) [14, 21]: 90 | Ragweed plant response rating (0 to 100 scale) ([15]; Postemergence, 31 g ai/ha): 100 | Ragweed plant response rating (0 to 100 scale) [15, 21]: 100 | Galium plant response rating (0 to 100 scale) ([16]; Postemergence, 31 g ai/ha): 100 | Galium plant response rating (0 to 100 scale) [16, 21]: 100 | Wheat plant response rating (0 to 100 scale) ([17]; Postemergence, 31 g ai/ha): 30 | Wheat plant response rating (0 to 100 scale) [17, 21]: 70 | Kochia plant response rating (0 to 100 scale) (kochia (Bassia scoparia) [18]; Postemergence, 31 g ai/ha): 100 | Kochia plant response rating (0 to 100 scale) (kochia (Bassia scoparia) [18]; [21]): 100 | Corn plant response rating (0 to 100 scale) (corn (Zea mays); Postemergence, 31 g ai/ha): 10 | Corn plant response rating (0 to 100 scale) (corn (Zea mays); [21]): 30
